In patent US11066414B2, “Cot modulators and methods of use thereof” (Gilead Sciences, Inc., priority 2015, dated 2021):
Read-outs that look alike come from different tables or passages of the source.

Assays:
TNFα = assay: Cot Monocyte TNFα Cell Based Assay
Human Cot = Human Cot (Homo sapiens (Human), UniProt P41279); assay: High Throughput Cot Biochemical Assay; conditions: Cot HTRF (TR-FRET) biochemical assay
[1] = Homo sapiens, Monocyte, read-out: EC50 TNF, LPS-stimulated human monocytes, TNFα
[2] = read-out: EC50 TNF, LPS-stimulated human monocytes, TNFα

Chain of Human Cot (P41279 30-397): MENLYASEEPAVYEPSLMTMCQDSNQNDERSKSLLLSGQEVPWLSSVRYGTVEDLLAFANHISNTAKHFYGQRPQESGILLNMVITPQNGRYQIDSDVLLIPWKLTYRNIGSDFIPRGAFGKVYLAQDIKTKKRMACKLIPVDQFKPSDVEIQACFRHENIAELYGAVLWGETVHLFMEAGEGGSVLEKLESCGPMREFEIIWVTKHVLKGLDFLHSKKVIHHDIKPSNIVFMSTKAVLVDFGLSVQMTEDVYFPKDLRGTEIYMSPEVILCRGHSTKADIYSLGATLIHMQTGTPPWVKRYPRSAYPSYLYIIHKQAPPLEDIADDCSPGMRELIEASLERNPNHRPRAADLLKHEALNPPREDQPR

Row | EC50 (TNFα; [1]) | IC50 (Human Cot; IC50 HTRF) | EC50 (TNFα; [2]) | IC50 (Human Cot; read-out: IC50 HTRF) | SMILES
1 | 209 nM | 18 nM | – | – | Cn1ccc2c([C@H](Nc3cc(Cl)c4ncc(C#N)c(NCC(C)(C)C)c4c3)c3cn(C4(C(F)F)CC4)nn3)ccnc21 [Example 767, (S)-8-chloro-6-(((1-(1-(difluoromethyl)cyclopropyl)-1H-1,2,3-triazol-4-yl)(1-methyl-1H-pyrrolo[2,3-b]pyridin-4-yl)methyl)amino)-4-(neopentylamino)quinoline-3-carbonitrile]
2 | 86 nM | 6 nM | – | – | Cn1ccc2c([C@H](Nc3cc(Cl)c4ncc(C#N)c(NCC(C)(C)CO)c4c3)c3cn(C45CC(C4)C5)nn3)cccc2c1=O [Example 768, (S)-6-(((1-(bicyclo[1.1.1]pentan-1-yl)-1H-1,2,3-triazol-4-yl)(2-methyl-1-oxo-1,2-dihydroisoquinolin-5-yl)methyl)amino)-8-chloro-4-((3-hydroxy-2,2-dimethylpropyl)amino)quinoline-3-carbonitrile]
3 | 28 nM | 2 nM | – | – | CCn1ccc2c([C@H](Nc3cc(Cl)c4ncc(C#N)c(NCC(C)(C)C)c4c3)c3cn(C45CC(C4)C5)nn3)cccc2c1=O [Example 769, (S)-6-(((1-(bicyclo[1.1.1]pentan-1-yl)-1H-1,2,3-triazol-4-yl)(2-ethyl-1-oxo-1,2-dihydroisoquinolin-5-yl)methyl)amino)-8-chloro-4-(neopentylamino)quinoline-3-carbonitrile]
4 | 108 nM | 4 nM | – | – | CC(C)(C)CNc1c(C#N)cnc2c(Cl)cc(N[C@H](c3cn(C4(C(F)(F)F)CC4)nn3)c3cccc4c(=O)n(CC(F)F)ccc34)cc12 [Example 770, (S)-8-chloro-6-(((2-(2,2-difluoroethyl)-1-oxo-1,2-dihydroisoquinolin-5-yl)(1-(1-(trifluoromethyl)cyclopropyl)-1H-1,2,3-triazol-4-yl)methyl)amino)-4-(neopentylamino)quinoline-3-carbonitrile]
5 | 293 nM | 4 nM | – | – | CC(C)(C)CNc1c(C#N)cnc2c(Cl)cc(N[C@H](c3cn(C4(C(F)(F)F)CC4)nn3)c3cccc4c(=O)n(CC(F)(F)F)ccc34)cc12 [Example 771, (S)-8-chloro-4-(neopentylamino)-6-(((1-oxo-2-(2,2,2-trifluoroethyl)-1,2-dihydroisoquinolin-5-yl)(1-(1-(trifluoromethyl)-cyclopropyl)-1H-1,2,3-triazol-4-yl)methyl)amino)quinoline-3-carbonitrile]
6 | 33 nM | 2 nM | – | – | CC(C)n1ccc2c([C@H](Nc3cc(Cl)c4ncc(C#N)c(NCC(C)(C)C)c4c3)c3cn(C45CC(C4)C5)nn3)cccc2c1=O [Example 772, (S)-6-(((1-(bicyclo[1.1.1]pentan-1-yl)-1H-1,2,3-triazol-4-yl)(2-isopropyl-1-oxo-1,2-dihydroisoquinolin-5-yl)methyl)amino)-8-chloro-4-(neopentylamino)quinoline-3-carbonitrile]
7 | 35 nM | 2 nM | – | – | CCn1ccc2c([C@H](Nc3cc(Cl)c4ncc(C#N)c(NCC(C)(C)C)c4c3)c3cn(C4(C)CC4)nn3)cccc2c1=O [Example 773, (S)-8-chloro-6-(((2-ethyl-1-oxo-1,2-dihydroisoquinolin-5-yl)(1-(1-methylcyclopropyl)-1H-1,2,3-triazol-4-yl)methyl)amino)-4-(neopentylamino)quinoline-3-carbonitrile]
8 | 27 nM | 3 nM | – | – | Cn1ccc2c([C@H](Nc3cc(Cl)c4ncc(C#N)c(NCC(C)(C)C)c4c3)c3cn(C4(CF)CC4)nn3)cccc2c1=O [Example 775, (S)-8-chloro-6-(((1-(1-(fluoromethyl)cyclopropyl)-1H-1,2,3-triazol-4-yl)(2-methyl-1-oxo-1,2-dihydroisoquinolin-5-yl)methyl)amino)-4-(neopentylamino)quinoline-3-carbonitrile]
9 | 24 nM | 2 nM | – | – | Cn1ccc2c([C@H](Nc3cc(Cl)c4ncc(C#N)c(NCC(C)(C)C)c4c3)c3cn(C4(C)CC4)nn3)cccc2c1=O [Example 776, (S)-8-chloro-6-(((2-methyl-1-oxo-1,2-dihydroisoquinolin-5-yl)(1-(1-methylcyclopropyl)-1H-1,2,3-triazol-4-yl)methyl)amino)-4-(neopentylamino)quinoline-3-carbonitrile]
10 | 30 nM | 4 nM | – | – | C[C@@H](CF)n1cc([C@@H](Nc2cc(Cl)c3ncc(C#N)c(NCC(C)(C)C)c3c2)c2cccc3c(=O)n(C)ccc23)nn1 [Example 778, 8-chloro-6-(((S)-(1-((S)-1-fluoropropan-2-yl)-1H-1,2,3-triazol-4-yl)(2-methyl-1-oxo-1,2-dihydroisoquinolin-5-yl)methyl)amino)-4-(neopentylamino)quinoline-3-carbonitrile]
11 | 26 nM | 3 nM | – | – | Cn1ccc2c([C@H](Nc3cc(Cl)c4ncc(C#N)c(NCC(C)(C)C)c4c3)c3cn(C4(C5CC5)CC4)nn3)cccc2c1=O [Example 779, (S)-6-(((1-([1,1′-bi(cyclopropan)]-1-yl)-1H-1,2,3-triazol-4-yl)(2-methyl-1-oxo-1,2-dihydroisoquinolin-5-yl)methyl)amino)-8-chloro-4-(neopentylamino)quinoline-3-carbonitrile]
12 | 52 nM | 5 nM | – | – | Cn1ccc2c([C@H](Nc3cc(Cl)c4ncc(C#N)c(NCC(C)(C)C(F)(F)F)c4c3)c3cn(C4(C(F)(F)F)CC4)nn3)cccc2c1=O [Example 780, (S)-8-chloro-6-(((2-methyl-1-oxo-1,2-dihydroisoquinolin-5-yl)(1-(1-(trifluoromethyl)-cyclopropyl)-1H-1,2,3-triazol-4-yl)methyl)amino)-4-((3,3,3-trifluoro-2,2-dimethylpropyl)amino)-quinoline-3-carbonitrile]
13 | – | – | 22 nM | 2 nM | Cn1ccc2c([C@H](Nc3cc(Cl)c4ncc(C#N)c(NCC(C)(C)C(F)(F)F)c4c3)c3cn(C4(C)CC4)nn3)cccc2c1=O [Example 781, (S)-8-chloro-6-(((2-methyl-1-oxo-1,2-dihydroiso-quinolin-5-yl)(1-(1-methylcyclopropyl)-1H-1,2,3-triazol-4-yl)methyl)amino)-4-((3,3,3-trifluoro-2,2-dimethylpropyl)amino)quinoline-3-carbonitrile]
14 | – | – | 51 nM | 3 nM | C[C@@H](CF)n1cc([C@@H](Nc2cc(Cl)c3ncc(C#N)c(NCC(C)(C)C(F)(F)F)c3c2)c2cccc3c(=O)n(C)ccc23)nn1 [Example 784, 8-chloro-6-(((S)-(1-((S)-1-fluoropropan-2-yl)-1H-1,2,3-triazol-4-yl)(2-methyl-1-oxo-1,2-dihydroiso-quinolin-5-yl)methyl)amino)-4-((3,3,3-trifluoro-2,2-dimethylpropyl)amino)quinoline-3-carbonitrile]
15 | 65 nM | 2 nM | – | – | CC(C)(C)CNc1c(C#N)cnc2c(Cl)cc(N[C@H](c3cn(C45CC(C4)C5)nn3)c3cccc4c(=O)[nH]ccc34)cc12 [Example 787, (S)-6-(((1-(bicyclo[1.1.1]pentan-1-yl)-1H-1,2,3-triazol-4-yl)(1-oxo-1,2-dihydroisoquinolin-5-yl)methyl)amino)-8-chloro-4-(neopentylamino)quinoline-3-carbonitrile]
16 | 82 nM | 5 nM | – | – | Cn1cc([C@@H](Nc2cc(Cl)c3ncc(C#N)c(NCC(C)(C)C)c3c2)c2cccc3c(=O)n(C)ccc23)nn1 [Example 790, (S)-8-chloro-6-(((2-methyl-1-oxo-1,2-dihydroisoquinolin-5-yl)(1-methyl-1H-1,2,3-triazol-4-yl)methyl)amino)-4-(neopentylamino)quinoline-3-carbonitrile]
17 | 242 nM | 22 nM | – | – | Cc1nc(F)ccc1C(Nc1cc(Cl)c2ncc(C#N)c(NCC(C)(C)C)c2c1)c1cn(C)nn1 (stereo not drawn) [Example 791, 8-chloro-6-(((6-fluoro-2-methylpyridin-3-yl)(1-methyl-1H-1,2,3-triazol-4-yl)methyl)amino)-4-(neopentylamino)quinoline-3-carbonitrile]
18 | 843 nM | 89 nM | – | – | Cc1nc(F)ccc1[C@H](Nc1cc(Cl)c2ncc(C#N)c(NCC3(C)COC3)c2c1)c1cn(C2(C(F)(F)F)CC2)nn1 [Example 792, (S)-8-chloro-6-(((6-fluoro-2-methylpyridin-3-yl)(1-(1-(trifluoromethyl)-cyclopropyl)-1H-1,2,3-triazol-4-yl)methyl)amino)-4-(((3-methyloxetan-3-yl)methyl)amino)quinoline-3-carbonitrile]
19 | 31 nM | 2 nM | – | – | Cn1ccc2c([C@H](Nc3cc(Cl)c4ncc(C#N)c(NCC(C)(C)C)c4c3)c3cn(C4CCC4)nn3)cccc2c1=O [Example 796, (S)-8-chloro-6-(((1-cyclobutyl-1H-1,2,3-triazol-4-yl)(2-methyl-1-oxo-1,2-dihydroisoquinolin-5-yl)methyl)amino)-4-(neopentylamino)quinoline-3-carbonitrile]
20 | 90 nM | 7 nM | – | – | CC(C)(CNc1c(C#N)cnc2c(Cl)cc(N[C@H](c3cn(C4(C5CC5)CC4)nn3)c3cccc4ncccc34)cc12)C(F)(F)F [Example 798, (S)-6-(((1-([1,1′-bi(cyclopropan)]-1-yl)-1H-1,2,3-triazol-4-yl)(quinolin-5-yl)methyl)amino)-8-chloro-4-((3,3,3-trifluoro-2,2-dimethylpropyl)amino)quinoline-3-carbonitrile]
21 | 46 nM | 4 nM | – | – | CC(C)(CNc1c(C#N)cnc2c(Cl)cc(N[C@H](c3cn(C45CC(C4)C5)nn3)c3cccc4ncccc34)cc12)C(F)(F)F [Example 799, (S)-6-(((1-(bicyclo[1.1.1]pentan-1-yl)-1H-1,2,3-triazol-4-yl)(quinolin-5-yl)methyl)amino)-8-chloro-4-((3,3,3-trifluoro-2,2-dimethylpropyl)amino)quinoline-3-carbonitrile]
